The text below walks through data of patent US7923554B2, “HIV inhibiting 1,2,4-triazin-6-one derivatives” (Janssen Pharmaceutica N.V., priority 2004, dated 2011).

System in one data set: not given
Assay: not given
Settings: not given
What is called melting point is the temperature, or range, at which the solid turns liquid. On to `Cc1cc(CCC#N)cc(C)c1Nc1nc(Nc2ccc(C#N)cc2)c(=O)n(CC#N)n1`, for which the melting point is 243 to 246 °C.
The same measure, in the same setting: the figure for `N#Cc1ccc(Nc2nc(Nc3c(F)cc(I)cc3F)n[nH]c2=O)cc1` [Compound 1] is 287 to 290 °C; for `N#CCCc1cc(Br)c(Nc2n[nH]c(=O)c(Nc3ccc(C#N)cc3)n2)c(Br)c1` [Compound 2] it is 339 to 340 °C.
Same read-out and setting: the figure for `Cc1cc(CCC#N)cc(C)c1Oc1n[nH]c(=O)c(Nc2ccc(C#N)cc2)n1` [Compound 3] is 351 to 352 °C; for `Cc1cc(C)c(S(=O)(=O)c2n[nH]c(=O)c(Nc3ccc(C#N)cc3)n2)c(C)c1` [Compound 7] it is 303 to 304 °C; for `Cc1cc(CCC#N)cc(C)c1Nc1nc(Nc2ccc(C#N)cc2)c(=O)n(C)n1` [Compound 9] it is 317 to 320 °C.
Still for that read-out and setting: the figure for `N#CCCn1nc(Nc2c(F)cc(Br)cc2F)nc(Nc2ccc(C#N)cc2)c1=O` [Compound 11] is 246 to 247 °C; for `CCn1nc(Nc2c(C)cc(CCC#N)cc2C)nc(Nc2ccc(C#N)cc2)c1=O` [Compound 15] it is 243 to 245 °C.

For a further data set, the system named is HIV-1. Briefly: microbe, parasite or virus in culture. Particulars: Human immunodeficiency virus 1, MT4, read-out: pEC50 (-logEC50) (converted).
Method: A rapid, sensitive and automated assay procedure was used for the in vitro evaluation of anti-HIV agents. […] In these cells, engineered with GFP (and an HIV-specific promotor), ongoing HIV-infection was measured fluorometrically. Cytotoxicity is measured in the same cells, but engineered with GFP under a constitutional promotor. The infection (or inhibition thereof) of HIV infected cells and the fluorescence of mock-infected cells is assessed by the fluorescent GFP signal generated by the two above mentioned cell lines.
As for `N#CCCc1cc(Br)c(Nc2n[nH]c(=O)c(Nc3ccc(C#N)cc3)n2)c(Br)c1` [Compound 2], the EC50 was 100 pM.
Still for that read-out and setting: the figure for `Cc1cc(CCC#N)cc(C)c1Oc1n[nH]c(=O)c(Nc2ccc(C#N)cc2)n1` [Compound 3] is 631 pM; for `Cc1cc(/C=C/C#N)cc(C)c1Nc1n[nH]c(=O)c(Nc2ccc(C#N)cc2)n1` [Compound 4] it is 631 pM; for `Cc1cc(CCC#N)cc(C)c1Nc1nc(Nc2ccc(C#N)cc2)c(=O)n(C)n1` [Compound 9] it is 501 pM.
In the case of `N#Cc1ccc(Nc2nc(Nc3c(F)cc(Br)cc3F)n[nH]c2=O)cc1` [Compound 10], the EC50 is 316 pM.
For the compound `Cc1cc(CCC#N)cc(C)c1Nc1nc(Nc2ccc(C#N)cc2)c(=O)n(CCO)n1` [Compound 14], the EC50 was 316 pM.
The same measure, in the same setting: the figure for `Cc1cc(C)c(Nc2nc(Nc3ccc(C#N)cc3)n[nH]c2=O)c(C)c1` [Compound 16] is 1000 pM; for `Cn1nc(Nc2c(Cl)cc(CCC#N)cc2Cl)nc(Nc2ccc(C#N)cc2)c1=O` [Compound 17] it is 1000 pM; for `Cc1cc(C)c(Nc2nc(Nc3ccc(C#N)cc3)nn(C)c2=O)c(C)c1` [Compound 18] it is 12600 pM.
With `N#CCCc1cc(Cl)c(Nc2n[nH]c(=O)c(Nc3ccc(C#N)cc3)n2)c(Br)c1` [Compound 19], the EC50 is 6310 pM.
As for `Cc1cc(C)c(Sc2nc(Nc3ccc(C#N)cc3)n[nH]c2=O)c(C)c1` [Compound 20], the EC50 was 631 pM.
Same read-out and setting: with `Cn1nc(Nc2c(Cl)cc(CCC#N)cc2Br)nc(Nc2ccc(C#N)cc2)c1=O` [Compound 21] the figure was 1000 pM.
On the same count and under the same terms, with `Cc1cc(C)c(Sc2nc(Nc3ccc(C#N)cc3)nn(C)c2=O)c(C)c1` [Compound 22] the figure was 15800 pM.
For `Cc1cc(C)c(Nc2n[nH]c(=O)c(Nc3ccc(C#N)cc3)n2)c(C)c1` [Compound 23], the EC50 was 794 pM.
Consider `N#C/C=C/c1cc(Cl)c(Nc2n[nH]c(=O)c(Nc3ccc(C#N)cc3)n2)c(Cl)c1` [Compound 24], for which the EC50 is 631 pM.
`N#C/C=C/c1cc(Cl)c(Nc2n[nH]c(=O)c(Nc3ccc(C#N)cc3)n2)c(Br)c1` [Compound 25]: the EC50 is 631 pM.
The same measure, in the same setting: with `N#C/C=C/c1cc(Br)c(Nc2n[nH]c(=O)c(Nc3ccc(C#N)cc3)n2)c(Br)c1` [Compound 26] the figure was 631 pM; with `Cc1cc(/C=C/C#N)cc(C)c1Nc1nc(Nc2ccc(C#N)cc2)n[nH]c1=O` [Compound 27], 200 pM; with `Cc1cc(/C=C/C#N)cc(C)c1Nc1nc(Nc2ccc(C#N)cc2)nn(C)c1=O` [Compound 28], 3980 pM.
The same measure, in the same setting: the figure for `COc1cc(/C=C/C#N)cc(C)c1Nc1n[nH]c(=O)c(Nc2ccc(C#N)cc2)n1` [Compound 29] is 316000 pM; for `Cc1cc(CCC#N)cc(C)c1Nc1nc(Nc2ccc(C#N)cc2)c(=O)n(CC#N)n1` [Compound 31] it is 316 pM.
`Cc1cc(CCC#N)cc(C)c1Nc1nc(Nc2ccc(C#N)cc2)c(=O)n(CC(N)=O)n1` [Compound 33]: the EC50 was 631 pM.
In the case of `COc1cc(C)c(Nc2nc(Nc3ccc(C#N)cc3)c(=O)n(C)n2)c(C)c1` [Compound 35], the EC50 was 10000 pM.
On to `CCn1nc(Nc2c(C)cc(CCC#N)cc2C)nc(Nc2ccc(C#N)cc2)c1=O` [Compound 37], for which the EC50 is 126 pM.
Same read-out and setting: the figure for `N#C/C=C/c1cc(F)c(Nc2n[nH]c(=O)c(Nc3ccc(C#N)cc3)n2)c(F)c1` [Compound 38] is 126 pM.
Still for that read-out and setting: with `COc1cc(CCC#N)cc(C)c1Nc1n[nH]c(=O)c(Nc2ccc(C#N)cc2)n1` [Compound 39] the figure was 100 pM; with `CCn1nc(Nc2c(C)cc(CCC#N)cc2OC)nc(Nc2ccc(C#N)cc2)c1=O` [Compound 40], 316 pM.
Still for that read-out and setting: with `COc1cc(/C=C/C#N)cc(C)c1Nc1nc(Nc2ccc(C#N)cc2)c(=O)n(C)n1` [Compound 42] the figure was 398 pM; with `Cc1cc(C)c(Sc2nc(Nc3ccc(C#N)cc3)c(=O)n(C)n2)c(C)c1` [Compound 43], 316 pM.
`Cc1cc(C#N)cc(C)c1Nc1nc(Nc2ccc(C#N)cc2)c(=O)n(C)n1` [Compound 46]: the EC50 is 251 pM.
Still for that read-out and setting: with `COc1cc(CCC#N)cc(C)c1Nc1nc(Nc2ccc(C#N)cc2)c(=O)n(CCO)n1` [Compound 47] the figure was 794 pM; with `Cc1cc(C#N)cc(C)c1Oc1n[nH]c(=O)c(Nc2ccc(C#N)cc2)n1` [Compound 48], 398 pM.
For the compound `N#CCCc1cc(Br)c(Nc2n[nH]c(=O)c(Nc3ccc(C#N)cc3Br)n2)c(Br)c1` [Compound 49], the EC50 was 316 pM.
For the compound `Cc1cc(C#N)cc(C)c1Oc1nc(Nc2ccc(C#N)cc2)c(=O)n(C)n1` [Compound 50], the EC50 is 158 pM.
On to `Cc1cc(CCC#N)cc(C)c1Oc1nc(Nc2ccc(C#N)cc2)c(=O)n(CC#N)n1` [Compound 53], for which the EC50 is 398 pM.
Turning to `CCn1nc(Nc2c(C)cc(/C=C/C#N)cc2C)nc(Nc2ccc(C#N)cc2)c1=O` [Compound 54], the EC50 is 75900 pM.
For `Cc1cc(CCC#N)cc(C)c1Oc1nc(Nc2ccc(C#N)cc2)c(=O)n(C)n1` [Compound 56], the EC50 is 631 pM.
On the same count and under the same terms, the figure for `N#CCCc1cc(Cl)c(Nc2n[nH]c(=O)c(Nc3ccc(C#N)cc3)n2)c(Cl)c1` [Compound 58] is 3160 pM; for `Cc1cc(/C=C/C#N)cc(C)c1Oc1n[nH]c(=O)c(Nc2ccc(C#N)cc2)n1` [Compound 59] it is 1260 pM.
The same measure, in the same setting: the figure for `Cc1cc(/C=C/C#N)cc(C)c1Oc1nc(Nc2ccc(C#N)cc2)c(=O)n(C)n1` [Compound 60] is 2510 pM.
The same measure, in the same setting: the figure for `Cc1cc(/C=C/C#N)cc(C)c1Oc1nc(Nc2ccc(C#N)cc2)c(=O)n(CC#N)n1` [Compound 61] is 1260 pM; for `Cc1cc(/C=C/C#N)cc(C)c1Oc1nc(Nc2ccc(C#N)cc2)c(=O)n(CCO)n1` [Compound 62] it is 316 pM.
Take `COc1cc(CCC#N)c(Br)cc1Nc1n[nH]c(=O)c(Nc2ccc(C#N)cc2)n1` [Compound 67]: the EC50 was 1510 pM.
On the same count and under the same terms, with `C/C(C#N)=C\c1cc(C)c(Nc2n[nH]c(=O)c(Nc3ccc(C#N)cc3)n2)c(C)c1` [Compound 68] the figure was 1200 pM.
As to `CCn1nc(Oc2c(C)cc(CCC#N)cc2C)nc(Nc2ccc(C#N)cc2)c1=O` [Compound 69], the EC50 is 891 pM.
On the same count and under the same terms, the figure for `Cc1cc(CCC#N)cc(C)c1Oc1nc(Nc2ccc(C#N)cc2)c(=O)n(CCO)n1` [Compound 70] is 794 pM; for `COc1cc(/C=C/C#N)cc(Cl)c1Nc1n[nH]c(=O)c(Nc2ccc(C#N)cc2)n1` [Compound 71] it is 794 pM; for `COc1cc(CCC#N)cc(Cl)c1Nc1nc(Nc2ccc(C#N)cc2)c(=O)n(C)n1` [Compound 72] it is 631 pM.
For the compound `CCn1nc(Nc2c(Cl)cc(CCC#N)cc2OC)nc(Nc2ccc(C#N)cc2)c1=O` [Compound 73], the EC50 is 631 pM.
In the case of `COc1cc(CCC#N)cc(Cl)c1Nc1nc(Nc2ccc(C#N)cc2)c(=O)n(CCO)n1` [Compound 74], the EC50 was 794 pM.
The same measure, in the same setting: the figure for `COc1cc(CCC#N)cc(Cl)c1Nc1nc(Nc2ccc(C#N)cc2)c(=O)n(CC#N)n1` [Compound 75] is 794 pM.
Regarding `C/C(=C\C#N)c1cc(C)c(Nc2n[nH]c(=O)c(Nc3ccc(C#N)cc3)n2)c(C)c1` [Compound 77], the EC50 is 794 pM.
Take `C/C(=C\C#N)c1cc(C)c(Nc2nc(Nc3ccc(C#N)cc3)c(=O)n(C)n2)c(C)c1` [Compound 78]: the EC50 is 794 pM.

Another data set deals with HIV-1.
Assay: not given
Settings: not given
On to `N#Cc1ccc(Nc2nc(Nc3c(F)cc(I)cc3F)n[nH]c2=O)cc1` [Compound 1], for which the “pEC50 (-logEC50)” value is recorded as 9.5.
On the same count and under the same terms, with `Cc1cc(CCC#N)cc(C)c1Nc1n[nH]c(=O)c(Nc2ccc(C#N)cc2)n1` [Compound 5] the figure was 9.6.
On the same count and under the same terms, with `Cc1cc(C)c(Sc2n[nH]c(=O)c(Nc3ccc(C#N)cc3)n2)c(C)c1` [Compound 6] the figure was 7.8; with `Cc1cc(C)c(S(=O)(=O)c2n[nH]c(=O)c(Nc3ccc(C#N)cc3)n2)c(C)c1` [Compound 7], 7.7.
Still for that read-out and setting: the figure for `Cn1nc(Nc2c(Br)cc(CCC#N)cc2Br)nc(Nc2ccc(C#N)cc2)c1=O` [Compound 8] is 10.0; for `N#CCCn1nc(Nc2c(F)cc(Br)cc2F)nc(Nc2ccc(C#N)cc2)c1=O` [Compound 11] it is 9.1.
With `CCn1nc(Nc2c(C)cc(CCC#N)cc2C)nc(Nc2ccc(C#N)cc2)c1=O` [Compound 15], the “pEC50 (-logEC50)” value amounted to 9.7.
On to `N#Cc1ccc(Nc2nc(Nc3c(F)cc(Br)cc3F)n[nH]c2=O)cc1` [Compound 30], for which the “pEC50 (-logEC50)” value is 9.2.
Still for that read-out and setting: the figure for `Cc1cc(CCC#N)cc(C)c1Nc1n[nH]c(=O)c(Nc2ccc(C#N)cc2)n1` [Compound 32] is 8.9; for `N#CCCn1nc(Nc2c(F)cc(Br)cc2F)nc(Nc2ccc(C#N)cc2)c1=O` [Compound 34] it is 8.5; for `N#Cc1ccc(Nc2nc(Nc3c(F)cc(I)cc3F)n[nH]c2=O)cc1` [Compound 36] it is 9.9.
`Cc1cc(C)c(Sc2n[nH]c(=O)c(Nc3ccc(C#N)cc3)n2)c(C)c1` [Compound 41]: the “pEC50 (-logEC50)” value is 9.7.
The same measure, in the same setting: the figure for `Cc1cc(CCC#N)cc(C)c1Nc1n[nH]c(=O)c(Nc2ccc(C#N)cc2)n1` [Compound 51] is 9.6; for `Cc1cc(C)c(S(=O)(=O)c2n[nH]c(=O)c(Nc3ccc(C#N)cc3)n2)c(C)c1` [Compound 52] it is 8.8; for `Cn1nc(Nc2c(Br)cc(CCC#N)cc2Br)nc(Nc2ccc(C#N)cc2)c1=O` [Compound 55] it is 9.
As for `COc1cc(CCC#N)c(Br)cc1Nc1n[nH]c(=O)c(Nc2ccc(C#N)cc2)n1` [Compound 67], the “pEC50 (-logEC50)” value is given as 9.0.
